This passage reports melting point results from a melting point compilation (Tetko et al.; mined from patent text by program, amines drawn as free bases though some values may be those of a salt).

SMILES strings stand for the structures.

As usually defined, the melting point is the temperature, or range, at which the solid turns liquid.

On to `Cc1ccc(C2CCCN2S(=O)(=O)c2ccc(F)cc2)c(C)c1` (racemic), for which the melting point is 134 °C.
As for `CC(C)CN1C(=O)C(NC(=O)c2cc3ccccc3[nH]2)N=C(N2CCCCCC2)c2ccccc21` (single isomer, unassigned; (-)), the figure is 240 to 241 °C; as for `OCc1c(C(F)(F)F)nn(-c2ccccc2)c1OC(F)F`, 57 to 59 °C.
Turning to `CC(=O)Oc1ccc(C[C@H]2CCc3ccccc3O2)cc1`, the melting point was in the range of 64 to 65 °C.
For `CON1C=C2N=NC3=C(N2C1)N(c1ccccc1)CC(C)=C3`, the melting point fell in the range of 214 to 217 °C.
The same measure for `O=C1Nc2ccccc2C1C1CCN(CC(O)C2COc3ccccc3O2)CC1` (stereo not drawn): 115 to 120 °C; for `COCc1cnc2c(NC(=O)c3c(Cl)cccc3Cl)ccc(C)c2c1Cl`: 180 °C.
Turning to `Cc1sc2ncc(C(O)CC(O)c3ccccc3)n2c1C` (stereo not drawn), the melting point is 152 to 153 °C.
`Cc1ccc(S(=O)(=O)OCCN2CN(C)C(=S)N(c3ccc(C)cc3C)C2)cc1` displayed a melting point of 82 to 85 °C.
As for `COC1=CC2=CCC3C(=CCC4(C)C(=O)C(C)CC34)C2(C)CC1` (stereo not drawn), the figure is 124 to 129 °C; as for `O=c1[nH]c(=O)n(Cc2cccc(OCc3noc(-c4ccccc4)n3)c2)o1`, 133 to 134 °C.
As for `CN1C(=O)CC[C@]2(C)c3ccc(-c4cccc(Cl)c4)cc3CC[C@@H]12`, the figure is 158 to 165 °C; as for `O=C1C(c2cc3c(cc2O)OCCCO3)c2ccccc2N1C(c1ccccc1)c1ccccc1` (stereo not drawn), 193 to 195 °C.
The same measure for `COc1cc(COc2nn(-c3ccccc3)cc2/C=C/c2nc(N3CCOCC3)sc2C)ccc1OCc1nc(-c2ccc(CC(=O)O)cc2)oc1C`: 171 to 173 °C; for `NCCC(=O)NCCCO`: 140 to 142 °C; for `COC(=O)C(C)(C)OCC#Cc1cc(C(F)(F)F)ccc1NS(=O)(=O)c1ccc2nc(NC(C)=O)sc2c1`: 104 to 106 °C.
With `Cc1cc(C#N)c(N)cc1Cl`, the melting point worked out at 180 °C.
The same measure for `CC(C)(C)OC(=O)N[C@@H](Cc1ccccc1)[C@H](O)CNC1(c2cccc(C(F)(F)F)c2)CC1`: 124 °C; for `COC(=O)COc1ccc(C(=O)C(C)N2CCN(c3ccncc3)CC2)cc1` (racemic): 81 to 83 °C; for `COc1cc2ncc(C#N)c(Nc3ccc(F)c(Cl)c3)c2cc1NC(=O)C=CCN1CCSC1`: 135 to 138 °C.
`CSC(=S)N1CCN(CC2=C(C)C(=O)C(C)=C(C)C2=O)CC1` gave a melting point of 133 to 135 °C.
The same measure for `CCCCCCCCCCCCCCOc1ccccc1C(=O)Cc1nnn[nH]1`: 67 to 69 °C.
Take `O=C(CCOCCOCCC(=O)Oc1cc(O)cc(O)c1)Oc1cc(O)cc(O)c1`: the melting point lay in the range of 166 to 168 °C.
`C[C@@H]([C@@H]1CCC(=O)O1)N(Cc1ccccc1)Cc1ccccc1` gave a melting point of 61 to 62 °C.
The same measure for `CC(=O)OC1CCC(c2ccccc2)CC1` (stereo not drawn): 43 to 45 °C; for `COc1ccc2c(c1)CC[C@@H](O)[C@@H]2N1CCCC1` (relative stereo): 79 to 80 °C.
The same measure for `N#CC(N)=C(C#N)N=Cc1cnn(-c2ncc(C(F)(F)F)cc2Cl)n1`: 220 to 222 °C; for `O=C(CC1(O)C(=O)N(Cc2ccc(Cl)cc2)c2ccccc21)C1CC1` (stereo not drawn): 102 to 103 °C; for `CCCCCCCCCCCCc1ccccc1C(Sc1nnnn1CCCC(=O)O)C(=O)O` (stereo not drawn): 86 to 88 °C.
For `CN1C(=O)N(c2c(Cl)cccc2Cl)Cc2cnc(NCc3ccc(CN)cc3)nc21`, the melting point is 151 to 152 °C.
On to `CNC(=O)c1ccc(N2CCN(Cc3cc(C)c4c(c3)NC(=O)C(C)O4)CC2)c(Cl)c1` (stereo not drawn), for which the melting point was found to be 232 °C.
On to `CN(C)C1CCc2[nH]c3cccc(F)c3c2C1` (stereo not drawn), for which the melting point lay within 166 to 168 °C.
The same measure for `CCC1(CC)Oc2ccc(C#N)cc2[C@@H](OC2=CC(=O)CC2)[C@@H]1O` (relative stereo): 166 to 170 °C; for `CC1Oc2ccc(CN3CCC(c4ccc(C(F)(F)F)cc4)CC3)cc2NC1=O` (stereo not drawn): 217 to 218 °C; for `O=c1c2ccc(-c3nnn[nH]3)cc2oc2ccc(OCCO)cc12`: 270 °C.
In turn, `CC(C)[C@@H](Cc1ccc(C(C)(C)C)cc1)C(=O)N1C(=O)OC[C@H]1Cc1ccccc1` returned a melting point of 124 °C.
The same measure for `CC(=O)N(C(C)=O)c1ccccc1Cn1[nH]c2ccccc2c1=O`: 114 to 115 °C; for `CCOC(=O)N1CCN(CCCN2C(=O)c3ccccc3C2=O)CC1`: 77 to 84 °C; for `CC(COc1ccc(CC2SC(=O)NC2=O)cc1)NCC(O)Cc1ccccc1` (stereo not drawn): 145 to 152 °C.
For the compound `CC(=O)NNc1nc(C(F)(F)F)nc(-c2ccc(S(C)(=O)=O)cc2)c1-c1ccccc1`, the melting point is 265 to 268 °C.
As for `CC(C)Nc1cccnc1N(C)CCOC(=O)c1cc2ccccc2[nH]1`, the figure is 130 to 131 °C; as for `CCCN1C(=O)N2CC(CC)N=C2c2c1ncn2C` (stereo not drawn), 124 to 126 °C; as for `O=C1CCCC2CN(C(Cc3ccccc3)=NCc3cccs3)CC12` (stereo not drawn), 114 °C.
The same measure for `CNC(=O)N1N=C(c2ccc(N)cc2)c2cc(OC)ccc2CC1C` (stereo not drawn): 190 to 191 °C; for `O=c1cc(-c2nnn[nH]2)oc2cc(COc3cccc(OCc4ccc5ccccc5n4)c3)ccc12`: 246 °C.
As to `Nc1ccc(Cc2ccccn2)cc1[N+](=O)[O-]`, the melting point fell in the range of 128 to 132 °C.
In turn, `O=C(c1cc2cccc(NS(=O)(=O)c3cccs3)c2[nH]1)N(Cc1ccccc1)Cc1ccccc1` returned a melting point of 198 to 199 °C.
On to `CN1CCN(c2cccc3ccc(Nc4ccccc4[N+](=O)[O-])cc23)CC1`, for which the melting point fell in the range of 87 to 94 °C.
`CC1(C=NO)OCCc2c1[nH]c1ccccc21` (stereo not drawn): the melting point was in the range of 176 to 178 °C.
`COc1ccc(-c2[nH]nc3c2C(=O)c2c(NC(=O)NN4CCOCC4)cccc2-3)cc1`: the melting point was in the range of 290 to 291 °C.
The same measure for `O=C1c2ccccc2-n2cnc(Cl)c2[C@@H]2CCCN12`: 233 to 234 °C; for `O=C1c2ccc(Nc3ccc(F)cc3F)cc2CCc2ccc(OCCCN3CCOCC3)cc21`: 114 °C; for `CC=C1c2ccccc2CC(=NO)c2ccccc21`: 128 to 131 °C.
As for `O=C(N[C@H]1CC[C@H](CCN2CCC(c3cccc4c3CCO4)CC2)CC1)C1(O)CC1`, the figure is 164 °C; as for `CC(=O)c1ccc2c(c1)C(=O)c1ccccc1CN2Cc1ccccc1`, 163 to 165 °C; as for `CCN(CC)Cc1nn2cc(-c3ccccc3)nc2s1`, 138 °C.
The same measure for `CC(=O)CCc1ccc(C(=O)c2ccc(F)cc2)cc1`: 67 to 68 °C; for `CCOC(=O)C[C@@H]1c2ccccc2O[C@H]1c1ccccc1` (relative stereo): 42 to 43 °C; for `CC(C)c1cccc2cc3ccccc3cc12`: 36 to 36.5 °C.
`CCc1c(-c2ccc(OCc3ccccc3)cc2)c2cc(C(C)=O)c3ccc(CO)c1n32` returned a melting point of 190 to 191 °C.
`CCCCOCCOc1ccc(-c2ccc3c(c2)C=C(C(=O)O)CCN3CC2CC2)cc1`: the melting point lay within 152 to 155 °C.
The same measure for `Nc1nc(NCc2ccccc2)c2ncn(C3C=CC(CO)C3)c2n1` (stereo not drawn): 174 to 176 °C; for `COC(=O)Cc1ccccc1NS(C)(=O)=O`: 73 to 75 °C; for `CC(=O)c1ccc(Oc2ncccc2C(=O)O)cc1`: 184 to 186 °C.
The compound `N#Cc1c(F)ccc(O)c1F` came in with a melting point of 119 to 121 °C.
As for `COc1ccc(C(C)(C)C)c(O)c1C(=O)Oc1ccccc1`, the figure is 74 to 75 °C.
`CCCCOCCOc1ccc(-c2ccc(N3CC=CC3)c(C=C(C)C(=O)O)c2)cc1` gave a melting point of 138 to 140 °C.
The compound `O=C(O)c1c2n(c3cc(N4CCOCC4)c(F)cc3c1=O)CS2` came in with a melting point of 244 to 248 °C.
Turning to `NS(=O)(=O)c1ccc(-c2[nH]c3ccc(Cl)cc3c2-c2ccc(Cl)cc2)cc1`, the melting point lay within 245 to 247 °C.
The same measure for `CCN(CC)Cc1nc(-c2ccc(OC)c(OC)c2)c2cc(OC)c(OC)cc2n1`: 111 to 113 °C; for `CCOC(=O)c1sc(-c2ccc(C#N)cc2)nc1CBr`: 156 °C.
As for `OCCN(CCO)CC(c1ccc(Cl)cc1)c1ccc(Cl)cc1`, the figure is 75 to 76 °C.
`C=CCOC(=O)NCc1noc([C@H](CS)NC(=O)OC(C)(C)C)n1`: the melting point is 55 to 58 °C.
In turn, `CCOC(=O)C1=Cc2cccc(N3CCCC3=O)c2OCC1` had a melting point of 64 to 66 °C.
The compound `CCOC(=O)c1c(N=[N+]=[N-])cc(C(F)(F)F)nc1C(F)(F)F` registered a melting point of 63 to 64.5 °C.
`CC12CCC(C(=Cc3ccc(C=O)cc3)C1=O)C2(C)C` (stereo not drawn): the melting point came to 116 °C.
`CCOC(=O)c1ccc(C(C)(C)C(N)=O)cc1`: the melting point fell in the range of 104 to 109 °C.
Take `COc1cc(OC)cc(-c2nc(C)nn2-c2ccc(S(N)(=O)=O)cc2)c1`: the melting point fell in the range of 207 to 208 °C.
The same measure for `CC(C)C(=O)NC1CCc2c(c3cc(C#N)ccc3n2Cc2ncccc2F)C1` (stereo not drawn): 213 to 216 °C.
Consider `CCN(CC)CCNC(=O)N1CCC(S(=O)(=O)c2ccc(Cl)cc2)C1` (stereo not drawn), for which the melting point fell in the range of 86 to 87.5 °C.
The same measure for `CCCc1cc(CC(=O)O)ccc1OC1COc2ccc(C(C)=O)c(O)c2C1` (stereo not drawn): 129 to 130 °C.
`COc1cnc(C(=O)O)cc1Cl`: the melting point was 209 °C.
As for `O=C(O)C1CN(CCCS(=O)(=O)O)CCN1` (stereo not drawn), the figure is 190 to 191 °C.
As for `CCOC(=O)C(C)Oc1ncn(-c2cccc(Cl)c2)n1` (stereo not drawn), the figure is 70 to 72 °C.
As for `CCOC(=O)C(C(=O)CCCCC(C)C)C1c2ccccc2C(=O)N1c1ccc2ccc(Cl)nc2n1` (stereo not drawn), the figure is 136 °C.
`CCOC(=O)c1c(O)nsc1C` displayed a melting point of 69 °C.
The compound `CC(C)(O)Cc1ccc2ccccc2c1` yielded a melting point of 79 to 80 °C.
As for `Cc1c(Cc2ccc(C(C)C)cc2)c2c(c(C)c1NC(=O)CC(C)(C)C)C(=O)C(C)(C)O2`, the figure is 193 to 194 °C.
